Assay results from patent US9517988B2 (Sichuan Haisco Pharmaceutical Co., Ltd., priority 2013, dated 2016).
Where a name gives a salt, the structure may show the parent alone.

Assays:
[1] = Righting reflex experiment on mice; conditions: both, ICR, mouse, in vivo; for MTD: intravenous; for LD50: iv
Method: (§1) LD5 (5% lethal dose): dose required to cause 5% of mice to die in a test.
(§2) If a normal animal was able to immediately turn its body to normal upright position after being pushed over or made lying on its back, such a reflex was determined as the righting reflex. Otherwise, loss of the righting reflex and the time of loss were recorded, and a reflex recovery time was recorded when the animal restored the righting reflex. The period from finishing of drug administration until loss of the righting reflex was recorded as the anesthesia induction time, and the period from loss of the righting reflex until recovery of the righting reflex was recorded as the anesthesia maintenance time.
(§3) TI (therapeutic index, i.e. LD50/ED50), SI (safety index, i.e. LD5/ED95).
(§4) MTD (maximum tolerated dose): the maximum dose able to cause 100% to loss the righting index without death.
(§5) Indicators such as median effective dose (ED50), median lethal dose (LD50), therapeutic index (TI, i.e. LD50/ED50), safety index (SI, i.e. LD5/ED95), anesthesia induction time, anesthesia maintenance time, and maximum tolerated dose (MTD) were used to evaluate the effect and safety of anesthesia. […] After adapting to the laboratory environment, laboratory animals were fasted for 12 hours. On the next day, administration was carried out at 10 mg/kg body weight. Upon intravenous injection, the time of loss of the righting reflex was recorded. The period from finishing of drug administration until loss of the righting reflex was recorded as the anesthesia induction time, and the period from loss of the righting reflex until recovery of the righting reflex was recorded as the anesthesia maintenance time. The anesthesia induction time and the anesthesia maintenance time were used to indicate how strong an anesthetic effect was. Meanwhile, the dose required to cause a 7-min anesthesia (HD7) was measured and used to evaluate relative efficacy.

ICR mice [2] = assay: Righting reflex experiment on mice; conditions: for ED50: Mus musculus, iv; for Anesthesia induction time / Anesthesia maintenance time / MTD: mice; for Anesthesia induction time / Anesthesia maintenance time: intravenous injection; for Anesthesia induction time: end of administration until loss of righting reflex; for Anesthesia maintenance time: loss until recovery of righting reflex; for SI: safety index, LD5/ED95, mice; for TI: therapeutic index, LD50/ED50, mice; for MTD: maximum dose causing 100% loss of righting reflex without death
Method: as §1, §2, §3, §4, §5

[3] = Righting reflex experiment on mice with prodrugs; assay type: in vivo; conditions: ICR, mouse, in vivo, mice; for MTD: prodrugs; for LD50: intravenous injection, prodrugs in physiological saline
Method: (§6) After adapting to the laboratory environment, the SPF-grade ICR mice were fasted for 12 hours.

ICR mice [4] = assay: Righting reflex experiment on mice with prodrugs; assay type: in vivo; conditions: for ED50: Mus musculus; for SI: safety index, LD5/ED95, mice; for TI: therapeutic index, LD50/ED50, mice
Method: as §6

[5] = mice, intravenous injection, prodrugs formulated with physiological saline, read-out: ED50
[6] = mice, intravenous injection, prodrugs

SMILES	LD50 [1] [mg/kg]	ED50 (ICR mice [2]) [mg/kg]	Anesthesia induction time (ICR mice [2]) [s]	Anesthesia maintenance time (ICR mice [2]) [s]	SI (ICR mice [2])	TI (ICR mice [2])	ED50 (ICR mice [4]; [5]) [mg/kg]	Anesthesia induction time (ICR mice [4]; [6]) [s]	Anesthesia maintenance time (ICR mice [4]; [6]) [s]	SI (ICR mice [4]; prodrugs)	TI (ICR mice [4]; prodrugs)	LD50 ([3]; both sexes) [mg/kg]	also measured
C[C@H](c1cccc([C@H](C)C2CC2)c1O)C1CC1 [Compound 19, 2-[(1S)-1-cyclopropylethyl]-6-[(1R)-1-cyclopropylethyl]phenol]	6.3	1.5	<15.0	754.4	3.8	4.1							MTD [1]: 5 mg/kg
CC[C@@H](C)c1cccc([C@H](C)C2CC2)c1OCOP(=O)([O-])[O-].[Na+].[Na+] [Compound 78]							15.9	65.2	2634.6	2.9	4.0		MTD ([3]; both, intravenous): 40 mg/kg; LD50 ([3]; both): 63.7 mg/kg
CC(C)c1cccc([C@H](C)C2CC2)c1OCOC(=O)[C@@H](N)Cc1ccccc1 [Compound 62, [2-[(1R)-1-cyclopropylethyl]-6-isopropyl-phenoxy]methyl(2S)-2-amino-3-phenylpropanoate trifluoroacetate]							7.7	<15.0	696.9	1.6	5.9	45.6	MTD ([3]; both sexes, intravenous): 30 mg/kg; ED50 and efficacy compared with propofol (ICR mice [4]; mice, prodrugs): smaller ED50 value and higher efficacy than propofol
CC(C)c1cccc(C(C)C2CCC2)c1O (centres unmarked) [Compound 7, 2-(1-cyclobutylethyl)-6-isopropylphenol]	40	7.1	<15.0	958.0	2.7	5.7							MTD (ICR mice [2]): 30.0 mg/kg
CC(c1cccc(C2CC2)c1O)C1CC1 (centres unmarked) [Compound 5, 2-cyclopropyl-6-(1-cyclopropylethyl)phenol]	80	14.5	<15.0	1669.5	4.0	5.5							MTD [1]: 60 mg/kg
CC(C)c1cccc([C@H](C)C2CC2)c1OCOP(=O)(OCOC(=O)C(C)(C)C)OCOC(=O)C(C)(C)C [Compound 35, [[2-[(1R)-1-cyclopropylethyl]-6-isopropyl-phenoxy]methoxy-(2,2-dimethylpropanoyloxymethoxy)phosphoryl]oxymethyl 2,2-dimethylpropanoate]								<15.0	1915.5	4.9	5.1	200	MTD ([3]; both sexes): 200 mg/kg; ED50 (ICR mice [4]; iv): 39.3 mg/kg
C[C@H](c1cccc([C@@H](C)C2CC2)c1O)C1CC1 [Compound 20, 2,6-bis[(1S)-1-cyclopropylethyl]phenol]	150	15.7	<15.0	1207.7	4.4	9.6							MTD (ICR mice [2]): 90.0 mg/kg
CC(=O)Oc1ccccc1C(=O)OCOc1c(C(C)C)cccc1[C@H](C)C1CC1 [Compound 38, [2-[(1R)-1-cyclopropylethyl]-6-isopropyl-phenoxy]methyl 2-acetoxybenzoate]							26.1	141.0	478.9	1.3	3.1	80	MTD ([3]; both sexes, intravenous): 50 mg/kg
CC(C)c1cccc([C@H](C)C2CC2)c1OCOP(=O)([O-])[O-].[K+].[K+] [Compound 45]													MTD ([3]; both, intravenous): 50 mg/kg; LD50 ([3]; both): 72.6 mg/kg
